ChEMBL document CHEMBL1201862, “PubChem BioAssay data set” (2004)
Values belong to the compound of their own block, whether it stands above or below them. The source made the active and inactive calls.

Legend:
[1] = molecular target: Cell division cycle 7-related protein kinase (Homo sapiens, UniProt O00311); type: functional;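 also: value obtained from a kinome-wide kinase panel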
[2] = molecular target: High affinity nerve growth factor receptor (Homo sapiens, UniProt P04629); type: functional;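 also: NTRK1 tested as one member of a kinome-wide profiling panel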
[3] = inhibition of ARNT PAS-B/TACC3 complex formation – biochemical, AlphaScreen, cherry-picked samples, confirmation (AID 651703); type: functional, Homo sapiens;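 also: His-tagged ARNT PAS-B domain paired with GST-TACC3 E629A dimer coactivator fragment; potency of inhibitors that break up the complex and lower AlphaScreen signal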
[4] = molecular target: Potassium voltage-gated channel subfamily KQT member 2 (Rattus norvegicus, UniProt O88943); assay: blockers of KCNQ2 channel current – cell-based, automated electrophysiology, set II, rat KCNQ2, dose response (AID 588637); type: functional
[5] = molecular target: T1, Probable nicotinate-nucleotide adenylyltransferase (Staphylococcus aureus (strain N315), UniProt P65502); type: functional, Staphylococcus aureus subsp. aureus N315;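 as to IC50 Mean: confirmatory dose-response retesting of NadD inhibitor hits first found in an ultra-high-throughput screen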
[6] = molecular target: T1, Probable nicotinate-nucleotide adenylyltransferase; type: functional, Staphylococcus aureus subsp. aureus N315; settings: read-out: IC50_Mean
[7] = molecular target: NAD-dependent protein deacylase sirtuin-5, mitochondrial (Homo sapiens, UniProt Q9NXA8); assay: sirtuin-5 deacylation blockers, concentration series – biochemical, fluorescence imaging, cherry-pick, set 5, dose response (AID 720591);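 also: desuccinylation of succinyl peptide AMC substrate read as fluorescence after trypsin release; potency of inhibitors that lower fluorescence and may act on trypsin instead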
[8] = molecular target: Hepatocyte nuclear factor 4-alpha (Homo sapiens, UniProt P41235); type: functional, cell-based;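 also: biochemical luminescence-based dose-response counterscreen measuring inhibition of HNF4 dimerization, run alongside a screen for blockers of ABHD5–perilipin-5 interaction; split luciferase complementation of HNF4 fusion proteins in cell lysate measuring dimerization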
[9] = molecular target: T2, Carboxy-terminal domain RNA polymerase II polypeptide A small phosphatase 1 (Homo sapiens, UniProt Q9GZU7); assay: CTDSP1 inhibitors, concentration-response, biochemical, absorbance readout, ultra-high-throughput screen actives (AID 540297); type: functional
T2 sequence (Q9GZU7 whole entry): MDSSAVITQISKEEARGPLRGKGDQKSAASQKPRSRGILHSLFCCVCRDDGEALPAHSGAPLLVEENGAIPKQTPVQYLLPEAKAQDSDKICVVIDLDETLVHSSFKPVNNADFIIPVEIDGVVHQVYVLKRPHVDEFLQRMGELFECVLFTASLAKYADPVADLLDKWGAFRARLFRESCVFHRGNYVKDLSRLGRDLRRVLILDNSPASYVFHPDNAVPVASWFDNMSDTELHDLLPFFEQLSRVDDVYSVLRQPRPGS

[10] = molecular target: Tyrosine-protein phosphatase non-receptor type 11 (Homo sapiens, UniProt Q06124); assay: PTPN11 enzyme inhibitors – biochemical, selectivity assay for STEP inhibitor project, dose response (AID 602367); type: functional; settings: read-out: IC50_Mean
[11] = molecular target: Tyrosine-protein phosphatase non-receptor type 5 (Homo sapiens, UniProt P54829); assay: PTPN5 enzyme inhibition – biochemical, fluorescence intensity, uHTS hits, confirmation (AID 602372); type: functional; settings: read-out: IC50_Mean
[12] = molecular target: Dual specificity protein phosphatase 3 (Homo sapiens, UniProt P51452); assay: VHR phosphatase inhibition, dose response, selectivity assay for STEP inhibitor project, biochemical (AID 602374); type: functional; settings: read-out: IC50_Mean
Dual specificity protein phosphatase 3, sequence (P51452 whole entry): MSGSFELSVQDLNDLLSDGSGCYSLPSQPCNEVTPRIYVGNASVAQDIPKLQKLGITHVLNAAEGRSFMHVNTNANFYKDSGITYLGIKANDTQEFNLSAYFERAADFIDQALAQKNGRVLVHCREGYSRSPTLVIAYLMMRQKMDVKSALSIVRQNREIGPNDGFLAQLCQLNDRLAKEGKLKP

Hepatocyte nuclear factor 4-alpha, sequence (P41235 whole entry, the tested form may be a part): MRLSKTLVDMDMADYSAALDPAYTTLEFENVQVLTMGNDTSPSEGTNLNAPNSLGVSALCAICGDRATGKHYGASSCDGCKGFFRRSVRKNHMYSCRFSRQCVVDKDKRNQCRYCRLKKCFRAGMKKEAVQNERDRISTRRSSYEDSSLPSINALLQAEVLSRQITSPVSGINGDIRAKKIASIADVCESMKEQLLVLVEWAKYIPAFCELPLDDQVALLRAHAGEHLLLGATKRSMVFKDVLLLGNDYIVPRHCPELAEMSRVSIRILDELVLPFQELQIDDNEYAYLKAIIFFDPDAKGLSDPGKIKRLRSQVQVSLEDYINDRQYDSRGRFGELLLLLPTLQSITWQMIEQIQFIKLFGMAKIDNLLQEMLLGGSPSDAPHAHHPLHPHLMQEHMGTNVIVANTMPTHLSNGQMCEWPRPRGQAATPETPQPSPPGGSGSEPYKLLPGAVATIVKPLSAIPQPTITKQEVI
High affinity nerve growth factor receptor, sequence (P04629 whole entry, the tested form may be a part): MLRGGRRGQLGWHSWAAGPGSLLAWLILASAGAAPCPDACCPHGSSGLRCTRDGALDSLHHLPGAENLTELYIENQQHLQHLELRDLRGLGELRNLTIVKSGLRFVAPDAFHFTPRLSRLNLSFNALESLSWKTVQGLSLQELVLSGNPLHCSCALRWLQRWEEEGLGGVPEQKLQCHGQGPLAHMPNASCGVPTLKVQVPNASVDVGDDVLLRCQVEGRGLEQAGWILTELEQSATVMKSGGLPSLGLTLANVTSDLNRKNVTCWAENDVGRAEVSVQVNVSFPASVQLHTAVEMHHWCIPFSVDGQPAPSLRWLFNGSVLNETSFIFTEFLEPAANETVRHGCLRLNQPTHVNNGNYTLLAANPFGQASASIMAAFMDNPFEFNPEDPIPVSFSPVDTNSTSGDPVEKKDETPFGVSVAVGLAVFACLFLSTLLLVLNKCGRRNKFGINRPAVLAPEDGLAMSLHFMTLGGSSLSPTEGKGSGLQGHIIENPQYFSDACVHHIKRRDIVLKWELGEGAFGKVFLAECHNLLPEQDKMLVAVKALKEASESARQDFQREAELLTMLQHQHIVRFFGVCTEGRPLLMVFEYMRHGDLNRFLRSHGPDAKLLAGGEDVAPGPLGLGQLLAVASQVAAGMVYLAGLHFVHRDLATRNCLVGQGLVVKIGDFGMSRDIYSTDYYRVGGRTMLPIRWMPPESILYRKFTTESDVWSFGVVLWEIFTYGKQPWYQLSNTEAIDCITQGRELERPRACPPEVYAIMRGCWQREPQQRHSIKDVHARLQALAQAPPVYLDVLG
Tyrosine-protein phosphatase non-receptor type 5, sequence (P54829 whole entry): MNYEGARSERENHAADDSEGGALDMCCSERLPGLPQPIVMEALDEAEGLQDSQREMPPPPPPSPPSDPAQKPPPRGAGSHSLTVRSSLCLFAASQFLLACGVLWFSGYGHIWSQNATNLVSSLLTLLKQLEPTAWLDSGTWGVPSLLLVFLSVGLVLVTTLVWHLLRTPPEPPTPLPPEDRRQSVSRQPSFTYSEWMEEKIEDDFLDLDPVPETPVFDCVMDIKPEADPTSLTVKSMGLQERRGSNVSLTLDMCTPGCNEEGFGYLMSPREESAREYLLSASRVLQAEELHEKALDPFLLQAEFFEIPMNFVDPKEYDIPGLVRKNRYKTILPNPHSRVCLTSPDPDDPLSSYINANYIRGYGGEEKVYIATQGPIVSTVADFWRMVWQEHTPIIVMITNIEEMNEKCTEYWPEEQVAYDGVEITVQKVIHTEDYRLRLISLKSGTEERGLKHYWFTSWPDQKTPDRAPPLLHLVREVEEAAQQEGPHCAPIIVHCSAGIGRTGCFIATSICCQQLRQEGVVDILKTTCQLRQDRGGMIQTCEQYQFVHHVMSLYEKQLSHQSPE
Cell division cycle 7-related protein kinase, sequence (O00311 whole entry): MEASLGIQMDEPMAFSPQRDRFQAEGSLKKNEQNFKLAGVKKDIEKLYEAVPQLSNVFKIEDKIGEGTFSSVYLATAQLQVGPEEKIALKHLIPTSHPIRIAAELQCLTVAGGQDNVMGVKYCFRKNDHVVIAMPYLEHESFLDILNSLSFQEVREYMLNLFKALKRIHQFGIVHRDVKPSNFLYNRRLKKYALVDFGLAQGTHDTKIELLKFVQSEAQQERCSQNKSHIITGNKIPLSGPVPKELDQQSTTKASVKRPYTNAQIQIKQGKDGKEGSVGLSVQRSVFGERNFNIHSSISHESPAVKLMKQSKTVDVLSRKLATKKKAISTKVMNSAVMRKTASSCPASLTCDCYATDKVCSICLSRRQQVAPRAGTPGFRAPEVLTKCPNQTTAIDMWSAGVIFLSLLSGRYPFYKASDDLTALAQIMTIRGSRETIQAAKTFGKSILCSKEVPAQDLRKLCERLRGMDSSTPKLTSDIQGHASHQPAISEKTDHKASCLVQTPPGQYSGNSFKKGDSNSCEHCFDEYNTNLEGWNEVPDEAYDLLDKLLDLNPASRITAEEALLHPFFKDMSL
NAD-dependent protein deacylase sirtuin-5, mitochondrial, sequence (Q9NXA8 whole entry, the tested form may be a part): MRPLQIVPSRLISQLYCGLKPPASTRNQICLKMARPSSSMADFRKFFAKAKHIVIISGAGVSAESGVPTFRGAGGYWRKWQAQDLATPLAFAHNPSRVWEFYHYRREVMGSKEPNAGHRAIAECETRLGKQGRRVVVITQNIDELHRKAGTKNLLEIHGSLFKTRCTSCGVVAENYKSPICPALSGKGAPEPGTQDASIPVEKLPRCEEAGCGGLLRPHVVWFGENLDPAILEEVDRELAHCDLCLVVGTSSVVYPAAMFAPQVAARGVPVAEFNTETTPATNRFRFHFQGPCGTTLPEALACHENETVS
Potassium voltage-gated channel subfamily KQT member 2, sequence (O88943 whole entry): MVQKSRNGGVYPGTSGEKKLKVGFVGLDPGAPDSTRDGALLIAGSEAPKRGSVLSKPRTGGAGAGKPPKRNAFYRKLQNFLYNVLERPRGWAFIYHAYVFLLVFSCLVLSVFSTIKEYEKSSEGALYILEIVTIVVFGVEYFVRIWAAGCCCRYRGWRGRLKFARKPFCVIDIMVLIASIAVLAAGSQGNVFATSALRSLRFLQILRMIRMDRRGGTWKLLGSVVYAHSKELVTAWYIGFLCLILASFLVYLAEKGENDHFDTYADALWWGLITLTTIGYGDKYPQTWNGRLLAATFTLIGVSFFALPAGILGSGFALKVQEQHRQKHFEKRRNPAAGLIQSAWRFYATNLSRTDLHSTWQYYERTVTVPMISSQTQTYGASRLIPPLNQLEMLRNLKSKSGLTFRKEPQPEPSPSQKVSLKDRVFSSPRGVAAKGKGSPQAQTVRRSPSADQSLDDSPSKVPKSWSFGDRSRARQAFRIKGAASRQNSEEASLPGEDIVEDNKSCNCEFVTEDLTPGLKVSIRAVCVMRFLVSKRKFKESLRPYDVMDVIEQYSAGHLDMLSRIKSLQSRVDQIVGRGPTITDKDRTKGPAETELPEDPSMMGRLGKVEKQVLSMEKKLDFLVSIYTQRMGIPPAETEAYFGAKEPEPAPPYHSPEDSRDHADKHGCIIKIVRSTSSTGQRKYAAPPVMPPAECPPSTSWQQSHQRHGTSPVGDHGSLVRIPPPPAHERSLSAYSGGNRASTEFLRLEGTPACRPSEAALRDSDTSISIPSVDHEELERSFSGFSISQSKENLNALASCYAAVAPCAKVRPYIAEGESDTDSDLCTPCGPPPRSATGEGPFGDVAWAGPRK

Ki [1]: 0.1 µM (active) | Ki [2]: 2.51 µM (active)
SMILES: NC(=O)c1ccc(-c2c[nH]c3nc(N)nc(NCc4c(F)cccc4F)c23)cc1

SMILES: O=C1c2cccnc2C(=O)N1Cc1ccc(S(=O)(=O)NCc2ccco2)s1
AC50 [3]: 98.4 µM (active)

IC50 [4]: 4.2 µM (active)
SMILES: Cc1csc2nc(CSc3ccc(Cl)cc3)cn12

IC50 [5]: 5.7 µM (active) | IC50 [6]: 25 µM (active) | AC50 [7]: > 30 µM (inactive)
SMILES: CCOC(=O)c1ccccc1NC(=O)c1ccc2c(SCC(=O)O)c3c(nc2c1)CCCC3

IC50 [8]: 6.66 µM (active)
SMILES: COc1cc(/C=C/C(=O)c2ccc(Cl)s2)cc(OC)c1O

IC50 [9]: 3.92 µM (active) | IC50 [10]: 7.43 µM (active) | IC50 [11]: 13.4 µM (active) | IC50 [12]: 6.67 µM (active)
SMILES: Cc1c(CC(=O)O)c(=O)oc2c(C)c(OCc3ccccc3Br)ccc12
